Data on 19 compounds can be found in US11858905B1, “Cathepsin L inhibitors” (priority 2023, dated 2024).

Where two headings read alike, the source gives them in different places. A value given as a limit tells only on which side of the number the result lay.

For orientation: IC50 means the concentration needed to halve the response being measured.

For one test, the target named is human CatL (Homo sapiens (Human), UniProt P07711). The test is described as follows: Human Cathepsin L (CatL) enzymatic assay. It counts as biochemical. How it is done: Human Cathepsin L (CatL) Enzymatic Assay
Chain of human CatL (P07711 whole entry, looked up): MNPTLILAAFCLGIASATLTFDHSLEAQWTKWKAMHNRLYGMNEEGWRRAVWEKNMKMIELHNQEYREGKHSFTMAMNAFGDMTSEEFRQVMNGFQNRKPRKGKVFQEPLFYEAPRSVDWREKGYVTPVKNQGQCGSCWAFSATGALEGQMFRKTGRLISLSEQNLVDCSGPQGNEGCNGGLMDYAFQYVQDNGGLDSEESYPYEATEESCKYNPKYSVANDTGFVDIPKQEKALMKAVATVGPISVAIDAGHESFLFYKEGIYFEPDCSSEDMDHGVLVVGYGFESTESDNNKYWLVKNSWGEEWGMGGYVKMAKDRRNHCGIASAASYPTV
60 μL of the compounds were added to 384-well dilution plate. The compound solution was diluted for 1:3 in succession in DMSO for each column for 10 pts. 0.05 μL diluted compound solution was added in each row to 384 assay plates (Corning 4514) using Echo (LABCYTE 655), each column containing 2 replicates. 5 μL working solution of human CatL enzyme (Abcam #ab81780) was added to 384-well assay plate, centrifuge 1000 rpm for 1 min. The mixture was incubated at […] for 15 min, then add 5 μL working solution of CatL substrate (Genscript #C7360HB140_5) to initiate the reaction (CatL: 0.05 nM, Substrate: 500 nM). Incubate at […] for 30 min. Reading Ex370 nm and Em460 nm fluorescence signals with BMG CLARIO Star Plusaucu. Percent inhibition for each compound was calculated and IC50 (half maximal inhibitory concentration) was fitted from non-linear regression by XLfit 5.5.0.

The subject of another test is SARS-CoV-2 PsVs. Kind of test: microbe, parasite or virus in culture. Format: cell-based. To be noted: for activity at 0.5 µM / activity at 5 µM: Severe acute respiratory syndrome coronavirus 2, Vero C1008, 24 h; for activity at 0.5 µM: read-out: % Infection rate at 500 nM; for activity at 5 µM: read-out: % Infection rate at 5 uM.
[1] abbreviates: CatL 0.05 nM, substrate 500 nM, pH 5.5, read-out: Enzymatic inhibition IC50.
Where [2] appears, read: summary of Table 2, read-out: IC50 for inhibiting CatL.

With `CN1CCN(c2ccc3nc(C[C@H](NC(=O)c4cc(C(C)(C)C)nn4C4CC4)C(=O)NC4(C#N)CC4)oc3c2)CC1` [Compound 26, (S)-3-(tert-butyl)-N-(1-((1-cyanocyclopropyl)amino)-3-(6-(4-methylpiperazin-1-yl)benzo[d]oxazol-2-yl)-1-oxopropan-2-yl)-1-cyclopropyl-1 H-pyrazole-5-carboxamide], the IC50 was 1.4 nM at human CatL (setting [1]) and less than 10 nM on human CatL (setting [2]). Also, the activity at 0.5 µM in the test on SARS-CoV-2 PsVs stood at 25%. Also, in the test with SARS-CoV-2 PsVs, the activity at 5 µM stood at 2.2%.
For the compound `CN1CC=C(c2ccc3nc(C[C@H](NC(=O)c4cccc(Cl)c4)C(=O)NC4(C#N)CC4)oc3c2)CC1` [Compound 27, (S)-3-chloro-N-(1-((1-cyanocyclopropyl)amino)-3-(6-(1-methyl-1,2,3,6-tetrahydropyridin-4-yl)benzo[d]oxazol-2-yl)-1-oxopropan-2-yl)benzamide], the half-maximal inhibitory concentration (IC50) on human CatL (setting [1]) worked out at 8.5 nM. The half-inhibitory concentration (IC50) on human CatL (setting [2]) is less than 10 nM. In the test with SARS-CoV-2 PsVs, the activity at 0.5 µM is 40% and the activity at 5 µM was 13%.
Regarding `CC1(c2cc(C(=O)N[C@@H](Cc3nc4ccc(-c5ccnc(C(F)F)c5)cc4o3)C(=O)NC3(C#N)CC3)n(C3CC3)n2)CC1` [Compound 47, (S)—N-(1-((1-cyanocyclopropyl)amino)-3-(6-(2-(difluoromethyl)pyridin-4-yl)benzo[d]oxazol-2-yl)-1-oxopropan-2-yl)-1-cyclopropyl-3-(1-methylcyclopropyl)-1H-pyrazole-5-carboxamide], the concentration for half-maximal inhibition (IC50) on human CatL (setting [1]) was 6.6 nM. Moreover, in the test on SARS-CoV-2 PsVs, the activity at 0.5 µM is 56% and the activity at 5 µM worked out at 15.9%.
As to `N#CC1(NC(=O)[C@H](Cc2nc3c(Br)cccc3o2)NC(=O)c2cccc(Cl)c2)CC1` [Compound 2, (S)—N-(3-(4-bromobenzo[d]oxazol-2-yl)-1-((1-cyanocyclopropyl)amino)-1-oxopropan-2-yl)-3-chlorobenzamide], the IC50 at human CatL (setting [1]) turned out to be 7.5 nM. The half-maximal inhibitory concentration (IC50) at human CatL (setting [2]) is less than 10 nM. Further, in the test on SARS-CoV-2 PsVs, the activity at 0.5 µM is 55% and the activity at 5 µM is 12%.
With `N#CC1(NC(=O)[C@H](Cc2nc3cccc(Cl)c3o2)NC(=O)c2cccc(Cl)c2)CC1` [Compound 6, (S)-3-chloro-N-(3-(7-chlorobenzo[d]oxazol-2-yl)-1-((1-cyanocyclopropyl)amino)-1-oxopropan-2-yl)benzamide], the IC50 on human CatL (setting [1]) amounted to 7 nM. In addition, at human CatL (setting [2]), the IC50 was less than 10 nM. In addition, in the test with SARS-CoV-2 PsVs, the activity at 0.5 µM worked out at 75% and the activity at 5 µM was 20%.
As for `Cc1cc(-c2ccc3nc(C[C@H](NC(=O)c4cc(C5(C)CC5)nn4C4CC4)C(=O)NC4(C#N)CC4)oc3c2)ccn1` [Compound 38, (S)—N-(1-((1-cyanocyclopropyl)amino)-3-(6-(2-methylpyridin-4-yl)benzo[d]oxazol-2-yl)-1-oxopropan-2-yl)-1-cyclopropyl-3-(1-methylcyclopropyl)-1H-pyrazole-5-carboxamide], the half-maximal inhibitory concentration (IC50) at human CatL (setting [1]) came to 1.7 nM. Moreover, in the test on SARS-CoV-2 PsVs, the activity at 0.5 µM is 34% and the activity at 5 µM amounted to 1%.
As for `N#CC1(NC(=O)[C@H](Cc2nc3cc(C(F)(F)F)ccc3o2)NC(=O)c2cccc(Cl)c2)CC1` [Compound 10, (S)-3-chloro-N-(1-((1-cyanocyclopropyl)amino)-1-oxo-3-(5-(trifluoromethyl)benzo[d]oxazol-2-yl)propan-2-yl)benzamide], at human CatL (setting [1]), the IC50 turned out to be 51.5 nM. Moreover, in the test with SARS-CoV-2 PsVs, the activity at 0.5 µM was determined as 97% and the activity at 5 µM amounted to 96%.
Consider `Cn1nc(C(C)(C)C)cc1C(=O)N[C@@H](Cc1nc2ccccc2o1)C(=O)NC1(C#N)CC1` [Compound 13, (S)—N-(3-(benzo[d]oxazol-2-yl)-1-((1-cyanocyclopropyl)amino)-1-oxopropan-2-yl)-3-(tert-butyl)-1-methyl-1H-pyrazole-5-carboxamide], for which, on human CatL (setting [1]), the IC50 is 3.9 nM. Besides, the IC50 at human CatL (setting [2]) is less than 10 nM. Also, in the test with SARS-CoV-2 PsVs, the activity at 0.5 µM is 55% and the activity at 5 µM amounted to 10%.
As for `Cn1c(C[C@H](NC(=O)c2cccc(Cl)c2)C(=O)NC2(C#N)CC2)nc2ccccc21` [Compound 32, (S)-3-chloro-N-(1-((1-cyanocyclopropyl)amino)-3-(1-methyl-1 H-benzo[d]imidazol-2-yl)-1-oxopropan-2-yl)benzamide], the concentration for half-maximal inhibition (IC50) on human CatL (setting [1]) was greater than 1000 nM. In the test with SARS-CoV-2 PsVs, the activity at 0.5 µM was determined as 101% and the activity at 5 µM was 95%.
As to `N#CC1(NC(=O)[C@H](Cc2nc3cc(Cl)ccc3o2)NC(=O)c2cccc(Cl)c2)CC1` [Compound 8, (S)-3-chloro-N-(3-(5-chlorobenzo[d]oxazol-2-yl)-1-((1-cyanocyclopropyl)amino)-1-oxopropan-2-yl)benzamide], on human CatL (setting [1]), the IC50 came out at 17.4 nM. Besides, in the test on SARS-CoV-2 PsVs, the activity at 0.5 µM came out at 92% and the activity at 5 µM turned out to be 69%.
In the case of `CC1(c2cc(C(=O)N[C@@H](Cc3nc4ccc(C5=CCN(CC(F)F)CC5)cc4o3)C(=O)NC3(C#N)CC3)n(C3CC3)n2)CC1` [Compound 40, (S)—N-(1-((1-cyanocyclopropyl)amino)-3-(6-(1-(2,2-difluoroethyl)-1,2,3,6-tetrahydropyridin-4-yl)benzo[d]oxazol-2-yl)-1-oxopropan-2-yl)-1-cyclopropyl-3-(1-methylcyclopropyl)-1H-pyrazole-5-carboxamide], the concentration for half-maximal inhibition (IC50) on human CatL (setting [1]) is 1.5 nM. In addition, in the test on SARS-CoV-2 PsVs, the activity at 0.5 µM amounted to 57% and the activity at 5 µM was 12%.
In the same order, the values of `Cc1cc(-c2ccc3nc(C[C@H](NC(=O)c4cc(C5(C)CC5)nn4C4CC4)C(=O)NCC#N)oc3c2)ccn1` [Compound 35, (S)—N-(1-((cyanomethyl)amino)-3-(6-(2-methylpyridin-4-yl)benzo[d]oxazol-2-yl)-1-oxopropan-2-yl)-1-cyclopropyl-3-(1-methylcyclopropyl)-1H-pyrazole-5-carboxamide] are 1.1 nM, 40% and 3.1%.
On to `CN1CCN(c2ccc3nc(C[C@H](NC(=O)c4cc(C5CC5)nn4C4CC4)C(=O)NCC#N)oc3c2)CC1` [Compound 25, (S)—N-(1-((cyanomethyl)amino)-3-(6-(4-methylpiperazin-1-yl)benzo[d]oxazol-2-yl)-1-oxopropan-2-yl)-1,3-dicyclopropyl-1 H-pyrazole-5-carboxamide], for which, on human CatL (setting [1]), the half-maximal inhibitory concentration (IC50) came out at 36.7 nM. Further, in the test on SARS-CoV-2 PsVs, the activity at 0.5 µM is 54% and the activity at 5 µM is 15%.
Regarding `CC(C)(C)c1cc(C(=O)N[C@@H](Cc2nc3cc(F)cc(Cl)c3o2)C(=O)NC2(C#N)CC2)n(C2CC2)n1` [Compound 21, (S)-3-(tert-butyl)-N-(3-(7-chloro-5-fluorobenzo[d]oxazol-2-yl)-1-((1-cyanocyclopropyl)amino)-1-oxopropan-2-yl)-1-cyclopropyl-1 H-pyrazole-5-carboxamide], the IC50 on human CatL (setting [1]) came to 8.2 nM. In addition, in the test with SARS-CoV-2 PsVs, the activity at 0.5 µM came out at 60% and the activity at 5 µM was 12%.
With `CC(C)(C)c1cc(C(=O)N[C@@H](Cc2nc3cccc(Cl)c3o2)C(=O)NC2(C#N)CC2)n(C2CC2)n1` [Compound 20, (S)-3-(tert-butyl)-N-(3-(7-chlorobenzo[d]oxazol-2-yl)-1-((1-cyanocyclopropyl)amino)-1-oxopropan-2-yl)-1-cyclopropyl-1H-pyrazole-5-carboxamide], the IC50 at human CatL (setting [1]) came to 4.2 nM. Further, in the test with SARS-CoV-2 PsVs, the activity at 0.5 µM was determined as 40% and the activity at 5 µM is 6.3%.
Take `N#CC1(NC(=O)[C@H](Cc2nc3c(Cl)cccc3o2)NC(=O)c2cccc(Cl)c2)CC1` [Compound 7, (S)-3-chloro-N-(3-(4-chlorobenzo[d]oxazol-2-yl)-1-((1-cyanocyclopropyl)amino)-1-oxopropan-2-yl)benzamide]: the IC50 on human CatL (setting [1]) is 21.1 nM. Moreover, in the test with SARS-CoV-2 PsVs, the activity at 0.5 µM came out at 96% and the activity at 5 µM turned out to be 48%.
On to `N#CC1(NC(=O)[C@H](Cc2nc3ccc(Cl)cc3o2)NC(=O)c2cccc(Cl)c2)CC1` [Compound 9, (S)-3-chloro-N-(3-(6-chlorobenzo[d]oxazol-2-yl)-1-((1-cyanocyclopropyl)amino)-1-oxopropan-2-yl)benzamide], for which, on human CatL (setting [1]), the IC50 was 30.5 nM. Besides, in the test on SARS-CoV-2 PsVs, the activity at 0.5 µM was 97% and the activity at 5 µM was 73%.
Take `COCCN1CC=C(c2ccc3nc(C[C@H](NC(=O)c4cc(C(C)(C)C)nn4C4CC4)C(=O)NCC#N)oc3c2)CC1` [Compound 45, (2S)-2-[(5-tert-butyl-2-cyclopropylpyrazol-3-yl)formamido]-N-(cyanomethyl)-3-{6-[1-(2-methoxyethyl)-3,6-dihydro-2H-pyridin-4-yl]-1,3-benzoxazol-2-yl}propanamide]: the half-maximal inhibitory concentration (IC50) at human CatL (setting [1]) is 2.5 nM. In addition, the “protection of cells from pseudovirus infection at 500 nM” value in the test on SARS-CoV-2 PsVs (500 nM) is reported as “nearly full protection”. In the test on SARS-CoV-2 PsVs, the activity at 0.5 µM was found to be 7% and the activity at 5 µM was 0.02%.
On to `Cc1ccc(-c2ccc3nc(C[C@H](NC(=O)c4cc(C5(C)CC5)nn4C4CC4)C(=O)NC4(C#N)CC4)oc3c2)cn1` [Compound 42, (S)—N-(1-((1-cyanocyclopropyl)amino)-3-(6-(6-methylpyridin-3-yl)benzo[d]oxazol-2-yl)-1-oxopropan-2-yl)-1-cyclopropyl-3-(1-methylcyclopropyl)-1H-pyrazole-5-carboxamide], for which, on human CatL (setting [1]), the IC50 amounted to 4.5 nM. In addition, in the test with SARS-CoV-2 PsVs, the activity at 0.5 µM came to 34% and the activity at 5 µM was 5.6%.
